In patent US4322555A, “Nonaprenylamine derivatives” (priority 1980, dated 1982):
Where a name gives a salt, the structure may show the parent alone. Read-outs that look alike come from different tables or passages of the source.

How the values were obtained:
[1] = Toxicity (acute toxicity, 50% lethal dose); details: mouse, in vivo, ddY male mice
serum interferon = test system: serum interferon; set-up: species or system mice; details: mouse, in vivo
[2] = test system: vaccinia virus (DIE strain); format: in vivo, vaccinia virus (DIE strain) in ICR female mice; details: 50 mg/kg i.p. on the day just before inoculation; ICR female mice; lesions counted 8th day
[3] = iv, read-out: 50% Lethal dose, intravenously administered
[4] = ip, read-out: 50% Lethal dose, intraperitoneally administered

| SMILES | LD50 [1, 3] | Serum interferon (Plaque inhibition) (serum interferon) | Prevention from vaccinia infection (Inhibition of tail lesion) [2] | LD50 [1, 4] |
| --- | --- | --- | --- | --- |
| CC(C)=CCCC(C)=CCCC(C)=CCCC(C)=CCCC(C)=CCCC(C)=CCCC(C)=CCCC(C)=CCCC(C)=CCNCc1ccccc1 [N-benzylsolanesylamine hydrochloride] | 152 mg/kg | 31.5% | 74.7% |  |
| CC(C)=CCCC(C)=CCCC(C)=CCCC(C)=CCCC(C)=CCCC(C)=CCCC(C)=CCCC(C)=CCCC(C)=CCN(C)Cc1ccccc1 [N-methyl-N-benzylsolanesylamine hydrochloride] | 550 mg/kg | 44.5% | 17.5% | > 500 mg/kg |
| CC(C)=CCCC(C)=CCCC(C)=CCCC(C)=CCCC(C)=CCCC(C)=CCCC(C)=CCCC(C)=CCCC(C)=CCN(C)c1ccccc1 [N-methyl-N-phenylsolanesylamine] | > 500 mg/kg | 24.1% | 26.8% | > 500 mg/kg |
| CC(C)=CCCC(C)=CCCC(C)=CCCC(C)=CCCC(C)=CCCC(C)=CCCC(C)=CCCC(C)=CCCC(C)=CCNCCc1ccccc1 [N-phenethylsolanesylamine hydrochloride] | 250 mg/kg | 19.1% | 30.8% | > 500 mg/kg |
